Values after ≈ are worked out from the molar mass of the structure shown.
Columns and labels:
[1] = AUC (0 to 8 hrs) in fasted Sprague Dawley rat at 10 mg/kg, po measured for 8 hrs by HPLC analysis; type: ADME, organism-based; parameters: dose 10 mg/kg, time 8 hrs, route po; conditions: in vivo
[2] = Apparent permeability of compound by PAMPA assay; type: ADME
[3] = Permeability of compound assessed as drug flux measured for 2 to 6 hrs by PAMPA assay; type: ADME; conditions: time 2-6 hrs
[4] = Oral bioavailability in fasted Sprague Dawley rat at 10 mg/kg measured for 8 hrs by HPLC analysis; type: ADME, organism-based; conditions: in vivo
[5] = Solubility in distilled water at 1 mg measured for 28 hrs by HPLC analysis; type: physicochemical
[6] = Tmax in fasted Sprague Dawley rat at 10 mg/kg, po measured for 8 hrs by HPLC analysis; type: ADME, organism-based; conditions: in vivo
[7] = target: T1, Cytochrome P450 2C9 (Homo sapiens, UniProt P11712); assay: Drug metabolism assessed as recombinant CYP2C9 (unknown origin)-mediated 4'-hydroxyl FP-d7 metabolite formation at 1 to 5 uM incubated for 10 mins in presence of NADPH by LC-MS analysis; type: ADME; conditions: recombinant enzyme, dose 1-5 µM
[8] = Cmax in fasted Sprague Dawley rat at 10 mg/kg, po measured for 8 hrs by HPLC analysis; type: ADME, organism-based; parameters: dose 10 mg/kg, time 8 hrs, route po; conditions: in vivo
[9] = target: T1, Cytochrome P450 2C9; assay: Drug metabolism assessed as recombinant CYP2C9 (unknown origin)-mediated 4'-hydroxyl FP-d7 metabolite formation by measuring Vmax per nmol of CYP at 1 to 5 uM incubated for 10 mins in presence of NADPH by LC-MS analysis; type: ADME; conditions: recombinant enzyme, dose 1-5 µM
[10] = Lipophilicity, log D of compound in n-octanol/PBS at pH 7.4 at 10 mg measured for 48 hrs by HPLC analysis; type: physicochemical
[11] = target: T1, Cytochrome P450 2C9; assay: Drug metabolism assessed as recombinant CYP2C9 (unknown origin)-mediated 4'-hydroxyl FP-d7 metabolite formation by measuring Vmax/Km per nmol of CYP at 1 to 5 uM incubated for 10 mins in presence of NADPH by LC-MS analysis; type: ADME; conditions: recombinant enzyme, dose 1-5 µM
[12] = Half life in Sprague Dawley rat at 1 mg/kg, iv measured for 8 hrs by HPLC analysis; type: ADME, organism-based; conditions: in vivo
[13] = Solubility in HCl at pH 1.2 at 1 mg measured for 28 hrs by HPLC analysis; type: physicochemical; conditions: HCl pH 1.2, pH 1.2
[14] = Clearance in Sprague Dawley rat at 1 mg/kg, iv measured for 8 hrs by HPLC analysis; type: ADME, organism-based; conditions: in vivo
[15] = AUC (0 to 8 hrs) in Sprague Dawley rat at 1 mg/kg, iv measured for 8 hrs by HPLC analysis; type: ADME, organism-based; parameters: dose 1 mg/kg, time 8 hrs, route iv; conditions: in vivo
[16] = Volume of distribution at steady state in Sprague Dawley rat at 1 mg/kg, iv measured for 8 hrs by HPLC analysis; type: ADME, organism-based; conditions: in vivo, read-out: Vdss
[17] = Solubility in PBS at pH 6.0 at 1 mg measured for 28 hrs by HPLC analysis; type: physicochemical; conditions: PBS pH 6.0, pH 6
[18] = target: T1, Cytochrome P450 2C9; assay: Drug metabolism assessed as recombinant CYP2C9 (unknown origin)-mediated 4'-hydroxy FP metabolite formation at 1 to 5 uM incubated for 10 mins in presence of NADPH by LC-MS analysis; type: ADME; conditions: recombinant enzyme, dose 1-5 µM

T1 sequence (P11712 whole entry): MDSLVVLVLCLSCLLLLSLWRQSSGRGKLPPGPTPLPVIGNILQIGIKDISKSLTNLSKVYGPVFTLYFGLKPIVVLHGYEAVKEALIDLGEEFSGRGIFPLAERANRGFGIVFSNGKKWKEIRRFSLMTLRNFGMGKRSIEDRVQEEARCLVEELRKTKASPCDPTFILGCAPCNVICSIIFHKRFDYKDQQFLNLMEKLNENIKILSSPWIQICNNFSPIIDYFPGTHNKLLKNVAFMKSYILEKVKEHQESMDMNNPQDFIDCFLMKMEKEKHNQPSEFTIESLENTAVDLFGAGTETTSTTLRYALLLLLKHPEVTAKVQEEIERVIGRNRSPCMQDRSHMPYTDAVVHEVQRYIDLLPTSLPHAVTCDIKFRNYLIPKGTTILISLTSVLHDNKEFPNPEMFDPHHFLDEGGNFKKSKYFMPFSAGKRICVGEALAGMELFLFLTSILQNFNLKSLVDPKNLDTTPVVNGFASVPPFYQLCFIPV

Compound: [2H]c1c([2H])c([2H])c(-c2c([2H])c([2H])c(C(C)C(=O)O)c([2H])c2F)c([2H])c1[2H] (configuration not stated)
- AUC(0-t) at 8 h [1]: 144 µg·h/mL
- Papp [2]: 5.32 ×10⁻⁶ cm/s
- Drug transport [3]: 4.6 µg/h
- bioavailability [4]: 75.3%
- solubility at 28 h [5]: 32.7 µg/mL (≈ 129 µM)
- Tmax [6]: 60 min
- Drug metabolism [7]: Metabolite_Detected
- Cmax [8]: 33000 ng/mL
- Vmax [9]: 0.91 pmol/min
- logD at 48 h [10]: 0.87
- Vmax/Km [11]: 1.24 µL/min
- half-life [12]: 33 min
- solubility at 28 h [13]: 12.7 µg/mL (≈ 50.5 µM)
- clearance [14]: 0.217 mL/min/kg
- AUC(0-t) at 8 h [15]: 19200 ng·h/mL
- Vd [16]: 0.0207 L/kg
- solubility at 28 h [17]: 918 µg/mL (≈ 3640 µM)

Compound: CC(C(=O)O)c1ccc(-c2ccccc2)c(F)c1 (configuration not stated) [FLURBIPROFEN]
- AUC(0-t) at 8 h [1]: 130 µg·h/mL
- Papp [2]: 5.24 ×10⁻⁶ cm/s
- Drug transport [3]: 4.53 µg/h
- bioavailability [4]: 66.9%
- solubility at 28 h [5]: 24.1 µg/mL (≈ 98.7 µM)
- Tmax [6]: 30 min
- Cmax [8]: 29600 ng/mL
- Drug metabolism [18]: Metabolite_Detected
- logD at 48 h [10]: 0.9
- half-life [12]: 34.2 min
- solubility at 28 h [13]: 5.9 µg/mL (≈ 24.2 µM)
- clearance [14]: 0.216 mL/min/kg
- AUC(0-t) at 8 h [15]: 19500 ng·h/mL
- Vd [16]: 0.0204 L/kg
- solubility at 28 h [17]: 810 µg/mL (≈ 3310 µM)

From ChEMBL document CHEMBL5356989, “Impact of multiple H/D replacements on the physicochemical properties of flurbiprofen” (RSC Med Chem, 2023)
